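The compound was tested at five concentrations on cells cultured in 96-well plates, with a 48-hour exposure period. GI50 = concentration required for 50% inhibition of growth.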 Activity calls are given as the source filed them. No stated cut-off is given here; in the data, active = GI50 up to about 1.1 µM and inactive = higher.
What was measured:
Assay in all cases: NCI-60 cell line screen, 48 h
LXFL 529 = test system: LXFL 529
XF498 = test system: XF498
M19-MEL = test system: M19-MEL
HOP-18 = test system: HOP-18
SNB-78 = test system: SNB-78
KM-20L2 = test system: KM-20L2
DMS-114 = test system: DMS-114
DMS-273 = test system: DMS-273
RXF 631 = test system: RXF 631

| SMILES | GI50 (LXFL 529) | GI50 (XF498) | GI50 (M19-MEL) | GI50 (HOP-18) | GI50 (SNB-78) | GI50 (KM-20L2) | GI50 (DMS-114) | GI50 (DMS-273) | GI50 (RXF 631) |
| --- | --- | --- | --- | --- | --- | --- | --- | --- | --- |
| Cc1ccc(C2=C(c3ccccc3)C(=O)C(c3ccccc3)=C2c2ccc(C)cc2)cc1 | 68.7 µM (inactive) | 35.3 µM (inactive) | 41.1 µM (inactive) | > 100 µM (inactive) | 31.6 µM (inactive) | 45.8 µM (inactive) |  |  |  |
| CSc1nc2nc(C(O)C(O)C(O)CO)cnc2c(=O)[nH]1 (centres undefined) | > 100 µM (inactive) | > 100 µM (inactive) | > 100 µM (inactive) |  | > 100 µM (inactive) | > 100 µM (inactive) | > 100 µM (inactive) | > 100 µM (inactive) |  |
| CCOC(=O)Cn1c(=O)n(C)c(=O)c2c1ncn2Cc1ccccc1 | > 100 µM (inactive) | 98.2 µM (inactive) | > 100 µM (inactive) |  | > 100 µM (inactive) | > 100 µM (inactive) | > 100 µM (inactive) | > 100 µM (inactive) |  |
| CC(Oc1ccc(OCC2CCCCC2)cc1)C(=O)NCCO (centres undefined) | > 100 µM (inactive) |  | > 100 µM (inactive) | > 100 µM (inactive) | > 100 µM (inactive) |  | 39.8 µM (inactive) | > 100 µM (inactive) |  |
| CCOC(=O)NC(=O)c1cn(CCN2CCN(C(=O)CCCCCCCCCCNc3ncnc4c3ncn4C3OC(CO)C(O)C3O)CC2)c(=O)[nH]c1=O (centres undefined) | > 100 µM (inactive) | > 100 µM (inactive) |  |  | > 100 µM (inactive) | > 100 µM (inactive) | > 100 µM (inactive) |  | > 100 µM (inactive) |
| CC(=O)C1=CSC2[C@H](NC(=O)Cc3ccccc3)C(=O)N2C1C(=O)OC(c1ccccc1)c1ccccc1 (some centres undefined) | > 100 µM (inactive) | > 100 µM (inactive) | 96.4 µM (inactive) |  | > 100 µM (inactive) |  | 84.3 µM (inactive) | 67.9 µM (inactive) | > 100 µM (inactive) |
| CC(C)C(Sc1nc(-c2ccccc2)c(-c2ccccc2)[nH]1)C(=O)NN (centres undefined) | > 100 µM (inactive) | 72.8 µM (inactive) | > 100 µM (inactive) |  | > 100 µM (inactive) | > 100 µM (inactive) | 99.8 µM (inactive) | > 100 µM (inactive) |  |
| COc1ccc(/C=N\O[Si](C)(C)C(C)(C)C)cc1O[Si](C)(C)C(C)(C)C | 16.1 µM (inactive) | 18.4 µM (inactive) | 18.2 µM (inactive) | 15.3 µM (inactive) | 19.3 µM (inactive) | 28.8 µM (inactive) | 18.5 µM (inactive) | 19.3 µM (inactive) | 21.1 µM (inactive) |
| O=C1CCN(CCC(F)(F)C(F)(F)C(F)(F)C(F)(F)F)C(=S)N1 | > 100 µM (inactive) | > 100 µM (inactive) | > 100 µM (inactive) |  | > 100 µM (inactive) | > 100 µM (inactive) | > 100 µM (inactive) | > 100 µM (inactive) |  |
| Cc1[nH]nc2c1C(=O)C=C(N(CCO)c1ccccc1)C2=O | > 100 µM (inactive) |  | > 100 µM (inactive) | > 100 µM (inactive) | > 100 µM (inactive) |  | > 100 µM (inactive) | > 100 µM (inactive) |  |
| COC(=O)c1cc(OC(C)=O)c2c(OC)ccc(OC)c2c1 | > 100 µM (inactive) | > 100 µM (inactive) | > 100 µM (inactive) |  | > 100 µM (inactive) | > 100 µM (inactive) | > 100 µM (inactive) | > 100 µM (inactive) |  |
| C=CCCc1cc(OC)ccc1CN(C)C(C)(C)CO |  |  | > 100 µM (inactive) | > 100 µM (inactive) | > 100 µM (inactive) | > 100 µM (inactive) | > 100 µM (inactive) | > 100 µM (inactive) |  |
| COc1cc(C(=O)Nc2cccc3ccccc23)c(Br)c(OC)c1OC | 31.1 µM (inactive) |  | 58.6 µM (inactive) | 4.33 µM (inactive) |  | > 100 µM (inactive) | 30.7 µM (inactive) |  | > 100 µM (inactive) |
| CC(=O)NNc1nc(C)c(C(/C=C/c2ccc(Cl)cc2)=N/NC(=S)NN)s1 | > 100 µM (inactive) | > 100 µM (inactive) | > 100 µM (inactive) | > 100 µM (inactive) | > 100 µM (inactive) | > 100 µM (inactive) | > 100 µM (inactive) | > 100 µM (inactive) | > 100 µM (inactive) |
| COC(=O)/C(=N\NC(N)=S)C(C(=O)OC)C(=O)C(=O)Nc1ccc(C)cc1 (centres undefined) | > 100 µM (inactive) | > 100 µM (inactive) | > 100 µM (inactive) | > 100 µM (inactive) | > 100 µM (inactive) | > 100 µM (inactive) | > 100 µM (inactive) | > 100 µM (inactive) | > 100 µM (inactive) |
| Sc1nnc(COc2ccc(Cl)cc2)[nH]1 | > 100 µM (inactive) |  | > 100 µM (inactive) |  | > 100 µM (inactive) | > 100 µM (inactive) | > 100 µM (inactive) | > 100 µM (inactive) | > 100 µM (inactive) |
| CN(C)CC1CCC(CN(C)C)C(=O)C1=O (centres undefined) | 1.67 µM (inactive) | 2.54 µM (inactive) | 19 µM (inactive) | 1.5 µM (inactive) |  | 16.4 µM (inactive) | 6.62 µM (inactive) | 15.8 µM (inactive) |  |
| Cn1c2c(c3ccccc31)CCN(CCCN1CCN(c3cccc(Cl)c3)CC1)C2=O | 16.2 µM (inactive) | 10.4 µM (inactive) | 20.2 µM (inactive) | 22.9 µM (inactive) |  | 2.87 µM (inactive) | 14.2 µM (inactive) | 24.1 µM (inactive) | 24.7 µM (inactive) |
| CC1=NN(C(=O)c2ccc(Cl)cc2)C(=O)/C1=C/c1ccc(Cl)cc1 | > 100 µM (inactive) | > 100 µM (inactive) | > 100 µM (inactive) |  | 40.8 µM (inactive) | > 100 µM (inactive) | > 100 µM (inactive) |  |  |
| CC1=NN(C(=O)c2ccccc2O)C(=O)/C1=C/c1cccc([N+](=O)[O-])c1 | 0.451 µM (active) |  |  |  | > 100 µM (inactive) | 15.6 µM (inactive) | 1.66 µM (inactive) |  |  |
| CN(C)/N=N/c1ccc(C(N)=O)cc1 | > 100 µM (inactive) | > 100 µM (inactive) | > 100 µM (inactive) | > 100 µM (inactive) | > 100 µM (inactive) | > 100 µM (inactive) | > 100 µM (inactive) | > 100 µM (inactive) |  |
| OCCCCn1cnc2c(O)ncnc21 | > 100 µM (inactive) |  | > 100 µM (inactive) | > 100 µM (inactive) | > 100 µM (inactive) | > 100 µM (inactive) | > 100 µM (inactive) |  |  |
| COc1cc(C(=O)O)cc2c1[nH]c1ccccc12 [MUKOEIC ACID] | > 25 µM (inactive) |  | > 25 µM (inactive) |  | > 25 µM (inactive) | > 25 µM (inactive) | > 25 µM (inactive) | > 25 µM (inactive) |  |
| C=C(C)[C@@H]1CC=C(CO)CC1 [PERILLYL ALCOHOL] | 668 µM (inactive) | 123 µM (inactive) | 182 µM (inactive) |  | 200 µM (inactive) | 265 µM (inactive) | 124 µM (inactive) |  | 565 µM (inactive) |

From ChEMBL document CHEMBL1201862, “PubChem BioAssay data set” (2004)
